Measured values: patent US20230121325A1, “FAST DISSOLVING PHARMACEUTICAL COMPOSITIONS” (XSPRAY PHARMA AB, priority 2021, published 2023)

Assays:
[1] = within and between patients; cited from earlier work
[2] = clinical; conditions: human, in vivo, 90 mg
[3] = Food effect analysis of Test Formulation (Fasted Study vs Fed Study); assay type: in vivo, human; conditions: Test Formulation single dose, least-squares geometric mean
Experimental: Objective: The objective of this analysis was to investigate the effect of food on the single-dose PK of Test Formulation using fasted and fed PK data from two studies, referred to as “Fasted Study” and “Fed Study,” respectively below.
Methodology. Since the PK parameters following the oral administration of Test Formulation in fasting and fed conditions were obtained from two different studies (Fasted Study and Fed Study, respectively), the PK data were analyzed using an analysis of variance (ANOVA), which considered the data as if they were collected in a parallel design.
Both studies were fully replicate studies and therefore subjects were dosed with Test Formulation on two occasions. The PK population in this analysis included subjects who received Test Formulation on two occasions; subjects who received Test Formulation only once were not included in this analysis.
In the current analysis, data from the PK population of the Fasted Study and Fed Study were considered “Reference” Treatment and “Test” Treatment, respectively.
For each parameter, the value used for the subject was the geometric mean of the two values that were available for each subject. The use of geometric means is consistent with the assumption that PK parameters are In normally distributed. Subjects with only one period of data were not included in the ANOVA, as this would incorrectly imply that singular data have the same weight as subjects with replicate values for the parameter.
In the Fasted Study, 51 subjects received Test Formulation on at least one occasion under fasting conditions, of whom 44 received Test Formulation on both occasions.
In the Fed Study, 32 subjects received Test Formulation on at least one occasion under fed conditions, of whom 27 received Test Formulation on both occasions.

For Cc1nc(Nc2ncc(C(=O)Nc3c(C)cccc3Cl)s2)cc(N2CCN(CCO)CC2)n1 [Dasatinib, dasatinib], the “coefficient of variation of AUC” value [1] is given as “up to 100%”, the “coefficient of variation of Cmax” value [1] is given as “up to 100%” and the AUC(0-inf) [2] is given as 434 ng·h/mL. For the same compound, the Cmax [2] was 138 ng/mL, the “AUC(0-24 h) LSmeans Fed” value ([3]; fed (n = 27)) was 413 ng·h/mL and the AUC(0-t) ([3]; human, plasma, oral, fasting (n = 44), read-out: AUC(0-24 h) LSmeans Fasted) was 433 ng·h/mL. For the same compound, the AUC(0-inf) ([3]; human, plasma, oral, fasting (n = 44), read-out: AUC(0-∞) LSmeans Fasted) was 446 ng·h/mL, the Cmax ([3]; human, plasma, oral, fasting (n = 44), read-out: Cmax LSmeans Fasted) was 127 ng/mL and the AUC(0-inf) ([3]; human, plasma, oral, fed (n = 27), read-out: AUC(0-∞) LSmeans Fed) was 431 ng·h/mL. It also gave a Cmax ([3]; human, plasma, oral, fed (n = 27), read-out: Cmax LSmeans Fed) of 67 ng/mL.
